Reference: US20230357134A1, “AGENTS FOR USE IN THE TREATMENT OF AMYLOIDOSIS” (UCL BUSINESS LTD, priority 2020, published 2023)

Legend:
[1] = molecular target: T1, recombinant Val122Ile TTR (Homo sapiens, UniProt P02766, V142I); assay: Mechano-enzymatic fibrillogenesis, TTR aggregation by turbidity at 400 nm; type: biochemical; conditions: equimolar ligand, Val122Ile TTR 9 μM, trypsin, 96 h, 100 % = protein without ligand, mean (SD)
T1 construct: the non-covalently associated protomers, of mass 13,761, each contain 127 residues; His6 (N); TEV cleavage site (N); made in house; host or cells: E. coli BL21 (DE3)
Experimental: (§1) Briefly, fibrillogenesis of recombinant Val122Ile TTR at 0.5 mg/ml (9 μM) in PBS, pH 7.4 was carried out in glass vials stirred at 1,400 rpm (IKA magnetic stirrer) and 37° C. in the presence and in the absence of trypsin (5 ng/μl). […] Each ligand was tested at 4 different concentrations (4.5, 9, 18, 36 μM respectively) corresponding to the following drug/TTR molar ratios of 0.5:1, 1:1, 2:1 and 4:1. Several dilutions of the drug stock solutions were made in order to add the same volume of DMSO to each sample. Control samples without drug were added with the same volume of DMSO only. To allow complete binding of ligand by TTR each sample was incubated for 30 min at 37° C. before addition of trypsin. Spectrophotometric turbidity at 400 nm was used to monitor fibril formation over time until it reached a plateau at 96 h. Aggregation of TTR in the presence of equimolar ligand concentrations was quantified as spectrophotometric turbidity at 400 nm as a proportion of 100% for aggregation of the protein in the absence of ligands (Table 2).

[2] = molecular target: T1, recombinant Val122Ile TTR; assay: Mechano-enzymatic fibrillogenesis, TTR amyloid by ThT emission fluorescence; type: biochemical; conditions: equimolar ligand, 96 h pellets, normalized to 100 % without ligand, mean (SD)
Experimental: as §1
At the end of the 96 h aggregation, pellets were harvested from each protein sample by 20 min centrifugation at 11,600 g, thoroughly rinsed with PBS to remove non-bound ligand, resuspended with 100 μl PBS, pH 7.4 containing 10 μM ThT in Costar 96-well black-wall plates. Bottom fluorescence values (excitation 440 nm, emission 480 nm) were recorded using a BMG LABTECH FLUostar Omega plate reader. Each value was normalized to the ThT signal of the TTR sample without ligand (Table 2)

isolated wild type TTR = molecular target: T2, isolated wild type TTR (Homo sapiens, UniProt P02766); assay: Displacement of 125I-T4 from isolated wild type TTR in buffer; conditions: concentration of ligand reducing binding of 125I-T4 by TTR by 50%, 125 nM TTR, pH 8.0, overnight 4° C., mean of at least 3 replicates; for IC50: read-out: D50 buffer
T2 construct: the non-covalently associated protomers, of mass 13,761, each contain 127 residues; His6 (N); TEV cleavage site (N); made in house; host or cells: E. coli BL21 (DE3)
Experimental: 3. Evaluation of Ligand Activity Based on Capacity to Displace ^125I-Thyroxine (T4) from TTR in Buffer/Human Plasma 3.1 Displacement of ^125I-T4 from Isolated Wild Type TR.
Competition of ligands with T4 for binding by TTR was assayed quantitatively by a previously described procedure (Kolstoe et al., 2010). Briefly, a solution of 125 nM TTR in 0.1 M Tris-HCl, 0.1 M NaCl and 0.001 M EDTA buffer, pH 8.0, was incubated overnight at 4° C. in the presence of 1.07 nM ^125I T4 (1,200 μCi/μg, 200 μCi/ml, Perkin Elmer) and increasing concentrations of inhibitor (0-5 μM) in 40 μl final volume. ^125I T4 bound by TTR was separated from unbound T4 by gel filtration chromatography using Micro Bio Spin 6 columns (Bio-Rad) previously equilibrated with the reaction buffer containing 1% w/v BSA. After counting with a Wizard2 gamma counter (Perkin-Elmer) for 60 s, percentage binding was plotted against the logarithm of the inhibitor concentration, and D50 (concentration of ligand reducing the binding of T4 by TTR by 50%) was determined using a four parameters dose-response curve with GraphPad Prism 5 (Table 1).

[3] = molecular target: T3, TTR in whole human plasma (Homo sapiens, UniProt P02766); assay: Displacement of 125I-T4 from TTR in normal human plasma; type: binding; conditions: wild type TTR, 30 min 37° C. with ligand, immunoprecipitation, mean of at least 3 replicates; for IC50: read-out: D50 plasma
T3 construct: TTR in whole plasma, from individuals homozygous for wild type TTR; from tissue; host or cells: whole human plasma
Experimental: 3.2 Displacement of ^125-T4 from TTR in Normal Human Plasma.
The displacement of ^125I-T4 from TTR in whole plasma, from individuals homozygous for wild type TTR, was studied by incubating plasma with each ligand at increasing concentrations for 30 min at 37° C., further incubation with […] followed by measurement of the radioactivity in the immunoprecipitate obtained with anti-TTR antibodies. […] Percentage binding was plotted against the logarithm of the inhibitor concentration, and D50 (concentration of ligand reducing the binding of T4 by TTR by 50%) was determined using a four parameter dose-response curve with GraphPad Prism 5 (Table 1).

SMILES | % Aggregation (Turbidity method) [1] | % Aggregation (Fluorescence method) [2] | IC50 (isolated wild type TTR) [nM] | IC50 [3] [nM] | % Aggregation (Turbidity method) ([1]; listed as T-663 (B3)) | % Aggregation (Fluorescence method) ([2]; listed as T-663 (B3)) | D50 plasma [3] | D50 buffer (isolated wild type TTR)
O=C(O)CCc1cc(Cl)c(OCC[C@H](O)[C@@H](O)CCOc2c(Cl)cc(Nc3ncccc3C(=O)O)cc2Cl)c(Cl)c1 (stereo in doubt) [Compound B3A, 2-[4-[(3S,4S)-6-[4-(2-carboxyethyl)-2,6-dichloro-phenoxy]-3,4-dihydroxy-hexoxy]-3,5-dichloro-anilino]pyridine-3-carboxylicacid] | 5.76 (2.32) % | 8.63 (5.17) % | – | – | – | – | – | –
O=C(O)CCc1cc(Cl)c(OCCOCCCCOc2c(Cl)cc(Nc3ccccc3C(=O)O)cc2Cl)c(Cl)c1 [Compound B2, 2-[4-[4-[2-[4-(2-carboxyethyl)-2,6-dichloro-phenoxy]ethoxy]butoxy]-3,5-dichloro-anilino]benzoic acid] | 5.25 (1.68) % | 4.36 (1.51) % | 100 | 2590 | – | – | – | –
O=C(O)CCc1cc(Cl)c(OCC[C@@H](O)[C@H](O)CCOc2c(Cl)cc(Nc3ncccc3C(=O)O)cc2Cl)c(Cl)c1 [Compound B3, 2-[4-[(3R,4R)-6-[4-(2-carboxyethyl)-2,6-dichloro-phenoxy]-3,4-dihydroxy-hexoxy]-3,5-dichloro-anilino]pyridine-3-carboxylic acid] | – | – | 70 | 1700 | 5.11 (1.58) % | 4.49 (2.08) % | – | –
O=C(O)CCc1cc(Cl)c(OCC[C@H](O)[C@@H](O)CCOc2c(Cl)cc(Nc3ccccc3C(=O)O)cc2Cl)c(Cl)c1 [Compound B4, 2-[4-[(3S,4S)-6-[4-(2-carboxyethyl)-2,6-dichloro-phenoxy]-3,4-dihydroxy-hexoxy]-3,5-dichloro-anilino]benzoic acid] | 3.52 (1.14) % | 4.74 (2.93) % | 70 | 4400 | – | – | – | –
O=C(O)CCc1cc(Cl)c(OCC[C@@H](O)[C@H](O)CCOc2c(Cl)cc(Nc3ccccc3C(=O)O)cc2Cl)c(Cl)c1 [Compound B4A, 2-[4-[(3R,4R)-6-[4-(2-carboxyethyl)-2,6-dichloro-phenoxy]-3,4-dihydroxy-hexoxy]-3,5-dichloro-anilino]benzoicacid] | 4.99 (0.46) % | 3.30 (1.19) % | 66 | 2300 | – | – | – | –
O=C(O)COCCOCCOCCOc1c(Cl)cc(Nc2ccccc2C(=O)O)cc1Cl [Compound B5, 2-[4-[2-[2-[2-(carboxymethoxy)ethoxy]ethoxy]ethoxy]-3,5-dichloro-anilino]benzoic acid] | 17.3 (14.8) % | 28.8 (13.4) % | 4600 | 66400 | – | – | – | –
O=C(O)CCOCCCOCCCOCCCOc1c(Cl)cc(Nc2ccccc2C(=O)O)cc1Cl [Compound B6, 2-[4-[3-[3-[3-(2-carboxyethoxy)propoxy]propoxy]propoxy]-3,5-dichloro-anilino]benzoic acid] | 6.24 (1.71) % | 12.0 (4.44) % | 1170 | 39700 | – | – | – | –
O=C(O)CCc1cc(Cl)c(OCCCOCCCOc2c(Cl)cc(-c3nc4ccc(C(=O)O)cc4o3)cc2Cl)c(Cl)c1 [Compound B7, 2-[4-[3-[3-[4-(2-carboxyethyl)-2,6-dichloro-phenoxy]propoxy]propoxy]-3,5-dichloro-phenyl]-1,3-benzoxazole-6-carboxylicacid] | 4.99 (1.88) % | 8.23 (2.61) % | 100 | 18400 | – | – | – | –
O=C(O)CCc1cc(Cl)c(OCOCCCOc2c(Cl)cc(Nc3ccccc3C(=O)O)cc2Cl)c(Cl)c1 [Compound B8, 2-[4-[3-[[4-(2-carboxyethyl)-2,6-dichloro-phenoxy]methoxy]propoxy]-3,5-dichloro-anilino]benzoic acid] | 6.35 (2.73) % | 11.7 (3.67) % | 2060 | – | – | – | no binding | –
Cc1n[nH]c(COCCCOCCCOc2c(Cl)cc(CCC(=O)O)cc2Cl)c1CCCOc1cc(C(=O)O)ccc1F [Compound B9, 3-[3-[5-[3-[3-[4-(2-carboxyethyl)-2,6-dichloro-phenoxy]propoxy]propoxymethyl]-3-methyl-1H-pyrazol-4-yl]propoxy]-4-fluorobenzoic acid] | 17.1 (0.66) % | 9.34 (4.36) % | 1350 | – | – | – | no binding | –
Cc1n[nH]c(COCCOCCCOc2c(Cl)cc(CCC(=O)O)cc2Cl)c1CCCOc1cc(C(=O)O)ccc1F [Compound B11, 3-[3-[5-[2-[3-[4-(2-carboxyethyl)-2,6-dichloro-phenoxy]propoxy]ethoxymethyl]-3-methyl-1H-pyrazol-4-yl]propoxy]-4-fluoro-benzoic acid] | – | – | 500 | – | – | – | no binding | –
O=C(O)CCc1cc(Cl)c(OCC/C=C/CCOc2c(Cl)cc(Nc3ncccc3C(=O)O)cc2Cl)c(Cl)c1 [Compound B13, (E)-2-((4-((6-(4-(2-carboxyethyl)-2,6-dichlorophenoxy)hex-3-en-1-yl)oxy)-3,5-dichlorophenyl)amino)nicotinic acid] | 5.31 (0.62) % | 9.76 (4.50) % | – | – | – | – | – | –
O=C(O)CCc1cc(Cl)c(OCC/C=C/CCOc2c(Cl)cc(Nc3ccccc3C(=O)O)cc2Cl)c(Cl)c1 [Compound B14, 2-[4-[(E)-6-[4-(2-carboxyethyl)-2,6-dichloro-phenoxy]hex-3-enoxy]-3,5-dichloro-anilino]benzoic acid] | 5.73 (0.50) % | 12.6 (3.17) % | – | – | – | – | – | –
O=C(O)Cc1cc(Cl)c(OCCCOCCOc2c(Cl)cc(CC(=O)O)cc2Cl)c(Cl)c1 [Compound B33, reference compound] | – | 75 (30) % | – | – | – | – | – | No binding
